The subject of assay [1] is circulating lymphocytes. As to the kind of experiment: Blood Lymphocyte Reduction Assay (BLR) in Rodents. Particulars: Lewis rats, oral, vs vehicle (PEG300). The class given is in vivo. The protocol:
Blood Lymphocyte Reduction Assay (BLR) in Rodents
Lewis rats were dosed orally with test article (as a solution or suspension in the vehicle) or vehicle alone (polyethylene glycol 300, “PEG300”). Blood was drawn at 4 hr by retro-orbital bleeding. Blood lymphocyte counts were determined on an ADVIA® 120 Hematology Analyzer (Siemens Healthcare Diagnostics). The results were measured as a reduction in the percentage of circulating lymphocytes as compared to the vehicle treated group at the 4 hr measurement.

The target in assay [2] is T1, S1P1 (Homo sapiens, UniProt P21453). As to the kind of experiment: Receptor [35S] GTPγS Binding Assay, membranes from S1P1/CHO cells. Type of assay: biochemical. Also noted: expressed in transfected cells; host or cells: S1P1/CHO cells. The conditions noted are these: for S1P3/S1P1 GTPγS (ratio of S1P3 GTPγS EC50 to S1P1 GTPγS EC50): selectivity ratio calculated from Table B, * may be greater than reported value due to S1P3 assay limits. The protocol:
(§1) Receptor [35S] GTPγS Binding Assays
(§2) Membranes prepared from S1P1/CHO cells or EDG3-Ga15-bla HEK293T cells were added to the compound plate (40 μl/well, final protein 3 μg/well) with MULTIDROP®. [^35S]GTP (1250 Ci/mmol, Perkin Elmer) was diluted in assay buffer: 20 mM HEPES, pH7.5, 10 mM MgCl2, 150 mM NaCl, 1 mM EGTA, 1 mM DTT, 10 μM GDP, 0.1% fatty acid free BSA, and 10 μg/ml Saponin to 0.4 nM. 40 μl of the [^35S] GTP solution was added to the compound plate with a final concentration of 0.2 nM. […] At the end of incubation, all the mixtures in the compound plate were transferred to a 384 well FB filter plates via GPCR robot system. […] 30 μl of MicroScint 20 scintillation fluid was added to each well for counting at Packard TOPCOUNT®.

Assay [3] has as its target T1, S1P1. Nature of the assay: S1P1 Binding Assay (33P-S1P radioligand competition, membranes). Also noted: expressed in transfected cells; host or cells: CHO cells. Particulars: membranes from CHO cells expressing human S1P1; 0.03 nM 33P-S1P; rounded to two digits. The protocol:
Membranes were prepared from CHO cells expressing human S1P1. Cells were dissociated in buffer containing 20 mM HEPES, pH 7.5, 50 mM NaCl, 2 mM EDTA and Protease Inhibitor cocktail (Roche), and disrupted on ice using the Polytron homogenizer. The homogenate was centrifuged at 20,000 rpm (48,000 G) and the supernatant was discarded. The membrane pellets were resuspended in buffer containing 50 mM HEPES, pH 7.5, 100 mM NaCl, 1 mM MgCl2, 2 mM EDTA and stored in aliquots at −80° C. after protein concentration determination.
Binding was performed for 45 minutes at room temperature, terminated by collecting the membranes onto GF/B filter plates, and radioactivity was measured by TOPCOUNT®. The competition data of the test compounds over a range of concentrations was plotted as percentage inhibition of radioligand specific binding.
The results in Table A were rounded to two digits.

The target of assay [4] is T2, S1P3 (Homo sapiens, UniProt Q99500).
T2 construct: expressed in transfected cells; host or cells: EDG3-Ga15-bla HEK293T cells
T2 sequence (Q99500 whole entry): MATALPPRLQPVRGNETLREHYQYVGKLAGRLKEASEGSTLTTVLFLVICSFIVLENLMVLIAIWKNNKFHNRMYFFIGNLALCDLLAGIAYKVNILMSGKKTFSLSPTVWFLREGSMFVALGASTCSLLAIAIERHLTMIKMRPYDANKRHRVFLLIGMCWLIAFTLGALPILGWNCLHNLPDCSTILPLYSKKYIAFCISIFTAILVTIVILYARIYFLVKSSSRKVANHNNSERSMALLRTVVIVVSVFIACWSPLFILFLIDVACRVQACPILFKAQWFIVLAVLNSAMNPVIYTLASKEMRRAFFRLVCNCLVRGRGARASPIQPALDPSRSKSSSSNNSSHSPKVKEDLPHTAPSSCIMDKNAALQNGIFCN
Nature of the assay: Receptor [35S] GTPγS Binding Assay, membranes from EDG3-Ga15-bla HEK293T cells. The class given is biochemical. Particulars: * detection limit 31,000 nM or 62,000 nM. The protocol:
as §1, §2
On the technique in general: Binding of GTPγS marks nucleotide exchange on a G protein.

[5] abbreviates: membranes from S1P1/CHO cells, read-out: S1P1 GTPγS EC50.

The structures appear in SMILES notation. Read-outs that look alike come from different tables or passages of the source. Bounds are passed on as bounds.

T1 sequence (P21453 whole entry): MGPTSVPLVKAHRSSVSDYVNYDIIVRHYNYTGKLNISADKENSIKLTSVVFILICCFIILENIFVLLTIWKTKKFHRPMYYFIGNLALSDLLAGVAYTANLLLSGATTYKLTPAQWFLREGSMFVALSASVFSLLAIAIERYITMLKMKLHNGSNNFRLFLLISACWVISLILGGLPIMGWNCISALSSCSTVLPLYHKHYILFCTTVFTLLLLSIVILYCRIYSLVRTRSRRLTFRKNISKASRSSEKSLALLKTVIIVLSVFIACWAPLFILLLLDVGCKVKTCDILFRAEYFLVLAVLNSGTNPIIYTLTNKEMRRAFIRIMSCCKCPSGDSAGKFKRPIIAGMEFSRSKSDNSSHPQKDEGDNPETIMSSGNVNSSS

For `CCCc1c(-c2nc(-c3ccc(C(O)CN4CCC[C@H](C(=O)O)C4)cc3)no2)noc1-c1ccccc1` (stereo partly drawn) [Example 4, (3S)-1-(2-Hydroxy-2-(4-(5-(5-phenyl-4-propylisoxazol-3-yl)-1,2,4-oxadiazol-3-yl)phenyl)ethyl)piperidine-3-carboxylic acid], the “% Reduction in Lymphocytes at 4 hr.” value in assay [1] (dose 3 mg/kg) is given as 71%.
As for `O=C(O)CCC1CCCN(CC(O)c2ccc(-c3noc(-c4onc(-c5ccccc5)c4C(F)(F)F)n3)cc2)C1` (centres unmarked) [Example 40, 3-(1-(2-Hydroxy-2-(4-(5-(3-phenyl-4-(trifluoromethyl)isoxazol-5-yl)-1,2,4-oxadiazol-3-yl)phenyl)ethyl)piperidin-3-yl)propanoic acid], the “% Reduction in Lymphocytes at 4 hr.” value in assay [1] (dose 5.5 mg/kg) is 80%.
In the case of `CC(O)(CN1CCC[C@H](C(=O)O)C1)c1ccc(-c2noc(-c3onc(-c4ccccc4)c3C(F)(F)F)n2)cc1` (stereo partly drawn) [Example 17, (3S)-1-(2-Hydroxy-2-(4-(5-(3-phenyl-4-(trifluoromethyl)isoxazol-5-yl)-1,2,4-oxadiazol-3-yl)phenyl)propyl)piperidine-3-carboxylic acid], the EC50 in assay [2] (setting [5]) was determined as 320 nM; in assay [4], 1200 nM. Also, the “S1P3/S1P1 GTPγS (ratio of S1P3 GTPγS EC50 to S1P1 GTPγS EC50)” value in assay [2] is 3.8. In assay [3], this compound displayed a concentration for half-maximal inhibition (IC50) of 28 nM.
With `CCCc1c(-c2nc(-c3ccc(CCN4CCC[C@H](C(=O)O)C4)cc3)no2)noc1-c1ccccc1` [Comparative Compound 119, (S)-1-(4-(5-(5-Phenyl-4-propylisoxazol-3-yl)-1,2,4-oxadiazol-3-yl)phenethyl)piperidine-3-carboxylic acid, reference compound], the values for the EC50 in assay [2] (read-out: S1P1 GTPγS EC50 value) and in assay [4] were 31000 nM and more than 62000 nM, respectively. For the same compound, the “S1P3/S1P1 GTPγS (ratio of S1P3 GTPγS EC50 to S1P1 GTPγS EC50)” value in assay [2] is 2.3; in assay [2] (listed as Comp. 119) it was 2.3*. Besides, in assay [3], the IC50 came out at 420 nM.
The compound `O=C(O)CC1CN(CC(O)c2ccc(-c3noc(-c4onc(-c5ccccc5)c4C(F)(F)F)n3)cc2)C1` (centres unmarked) [Example 27, 2-(1-(2-Hydroxy-2-(4-(5-(3-phenyl-4-(trifluoromethyl)isoxazol-5-yl)-1,2,4-oxadiazol-3-yl)phenyl)ethyl)azetidin-3-yl)acetic acid] came in with an IC50 in assay [3] of 14 nM.
On the same count and under the same terms, the figure for `CCCc1c(-c2nc(-c3ccc(C(O)CN4CCCCC4C(=O)O)cc3)no2)noc1-c1ccccc1` (centres unmarked) [Example 2, 1-(2-Hydroxy-2-(4-(5-(5-phenyl-4-propylisoxazol-3-yl)-1,2,4-oxadiazol-3-yl)phenyl)ethyl)piperidine-2-carboxylic acid] is 2.2 nM.
In the case of `O=C(O)[C@H]1CCCN(C[C@@H](O)c2ccc(-c3noc(-c4onc(-c5ccccc5)c4C(F)(F)F)n3)cc2)C1` [Example 14, (S)-1-((S)-2-Hydroxy-2-(4-(5-(3-phenyl-4-(trifluoromethyl)isoxazol-5-yl)-1,2,4-oxadiazol-3-yl)phenyl)ethyl)piperidine-3-carboxylic acid], the “% Reduction in Lymphocytes at 4 hr.” value in assay [1] (dose 3 mg/kg) turned out to be 83%.
`O=C(O)[C@H]1CCCN(CC(O)c2ccc(-c3noc(-c4onc(-c5ccccc5)c4C(F)(F)F)n3)c(C(F)(F)F)c2)C1` (stereo partly drawn) [Example 26, (3S)-1-(2-Hydroxy-2-(4-(5-(3-phenyl-4-(trifluoromethyl)isoxazol-5-yl)-1,2,4-oxadiazol-3-yl)-3-(trifluoromethyl)phenyl)ethyl)piperidine-3-carboxylic acid]: the IC50 in assay [3] came out at 14 nM.
As for `CCCc1c(-c2nc(-c3ccc(C(O)CN4CC(C(=O)O)C4)cc3)no2)noc1-c1ccccc1` (centres unmarked) [Example 1, 1-(2-Hydroxy-2-(4-(5-(5-phenyl-4-propylisoxazol-3-yl)-1,2,4-oxadiazol-3-yl)phenyl)ethyl)azetidine-3-carboxylic acid], the IC50 in assay [3] worked out at 0.45 nM.
For the compound `O=C(O)C1CN(CC(O)c2ccc(-c3noc(-c4onc(-c5ccccc5)c4C(F)(F)F)n3)cc2)CCO1` (centres unmarked) [Example 28, 4-(2-Hydroxy-2-(4-(5-(3-phenyl-4-(trifluoromethyl)isoxazol-5-yl)-1,2,4-oxadiazol-3-yl)phenyl)ethyl)morpholine-2-carboxylic acid], the half-inhibitory concentration (IC50) in assay [3] is 31 nM.
On to `CCCc1c(-c2nc(-c3ccc(C(O)CN4CCCC(C(=O)N(CC)CC)C4)cc3)no2)noc1-c1ccccc1` (centres unmarked) [Example 24, N,N-Diethyl-1-(2-hydroxy-2-(4-(5-(5-phenyl-4-propylisoxazol-3-yl)-1,2,4-oxadiazol-3-yl)phenyl)ethyl)piperidine-3-carboxamide], for which the values for the EC50 in assay [2] (setting [5]) and in assay [4] were 410 nM and 3500 nM, respectively. In addition, in assay [2], the “S1P3/S1P1 GTPγS (ratio of S1P3 GTPγS EC50 to S1P1 GTPγS EC50)” value is reported as 8.6. In assay [3], this compound displayed an IC50 of 43 nM.
In the case of `CCCc1c(-c2nc(-c3ccc(C(O)CN4CC[C@@H]4C(=O)O)cc3)no2)noc1-c1ccccc1` (stereo partly drawn) [Example 7, (2R)-1-(2-Hydroxy-2-(4-(5-(5-phenyl-4-propylisoxazol-3-yl)-1,2,4-oxadiazol-3-yl)phenyl)ethyl)azetidine-2-carboxylic acid], in assay [3], the 50% inhibitory concentration (IC50) stood at 12 nM.
As for `O=C(O)C[C@H]1CCCN(C[C@@H](O)c2ccc(-c3noc(-c4onc(-c5ccccc5)c4C(F)(F)F)n3)cc2)C1` [Example 18, 2-((3R)-1-(2-Hydroxy-2-(4-(5-(3-phenyl-4-(trifluoromethyl)isoxazol-5-yl)-1,2,4-oxadiazol-3-yl)phenyl)ethyl)piperidin-3-yl)acetic acid], the “% Reduction in Lymphocytes at 4 hr.” value in assay [1] (dose 1 mg/kg) amounted to 82%.

What is called EC50 is the concentration giving half of the maximal effect. As usually defined, the IC50 is the concentration that gives 50% inhibition. A high value points to weaker potency.

Values taken from patent US8399451B2, “Heterocyclic compounds” (Bristol-Myers Squibb Company, priority 2009, dated 2013).
